Structures are written as SMILES. pIC50: −log10 of the molar value.

The source of these data is patent US20260028326A1, “COMPOUND BASED ON ISOINDOLINE-SUBSTITUTED GLUTARIMIDE BACKBONE AND USE THEREOF” (GLUETACS THERAPEUTICS (SHANGHAI) CO., LTD., priority 2022, published 2026).

The target of experiment [1] is human Cereblon WT GST-tagged protein (Homo sapiens (Human), UniProt Q96SW2). Briefly: CRBN-binding affinity, HTRF (CEREBLON BINDING kit). In short, it runs like this: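 HTRF competition readout: compounds compete with a thalidomide-Re conjugate for GST-tagged wild-type human CRBN detected via Eu-labelled anti-GST antibody. Inhibition rate derived relative to protein-free blank wells.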
A general note: In TR-FRET formats the signal depends on donor and acceptor labels being close together.

The next experiment has as its target IKZF1 protein (Homo sapiens (Human), UniProt Q13422+Q96SW2). Briefly: Western-blot assay of substrate protein degradation in hPBMC, IKZF1. It is filed as cell-based. The note with it: hPBMC cells, compound 500 nM, 24 hours, Western blot. A general note: A western blot detects proteins with antibodies after separation by electrophoresis.
Another experiment has as its target IKZF3 protein (Homo sapiens (Human), UniProt Q96SW2+Q9UKT9). Briefly: Western-blot assay of substrate protein degradation in hPBMC, IKZF3. Conditions: hPBMC cells, compound 500 nM, 24 hours, Western blot. It is filed as cell-based.
In the next experiment the target is GSPT1 protein (Homo sapiens (Human), UniProt P15170+Q96SW2). Briefly: Western-blot assay of substrate protein degradation in hPBMC, GSPT1. Conditions: hPBMC cells, compound 500 nM, 24 hours, Western blot. It is filed as cell-based.
For a further experiment, the system named is Mino cells. Briefly: Tumor cell proliferation IC50 (CCK-8), Mino.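 Further: cell viability assessed with CCK-8 reagent after compound exposure, IC50 derived from plotted growth inhibition curves.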 Conditions: Homo sapiens, 72 h, read-out: IC50 for inhibiting the proliferation of tumor cells, Mino.
The next experiment concerns MM.1S cells. Briefly: Tumor cell proliferation IC50 (CCK-8), MM.1S.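 Further: viability of cultured cells read by CCK-8 reagent after compound exposure, growth inhibition curves fitted to derive IC50.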 Conditions: Homo sapiens, MM1.S, 72 h, read-out: IC50 for inhibiting the proliferation of tumor cells, MM.1S.
The subject of another experiment is Daudi cells. Briefly: Tumor cell proliferation IC50 (CCK-8), Daudi.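 Further: cell viability read with CCK-8 reagent after compound exposure of Daudi cells, IC50 derived from plotted growth inhibition curves.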 Conditions: Homo sapiens, read-out: IC50 for inhibiting the proliferation of tumor cells, Daudi.
In another experiment the test system is MV-4-11 cells. Briefly: Tumor cell proliferation IC50 (CCK-8), MV-4-11. The note with it: Homo sapiens, MV4-11, 96 h, read-out: IC50 for inhibiting the proliferation of tumor cells, MV-4-11.
In the next experiment the test system is Kasumi-1 cells. Briefly: Tumor cell proliferation IC50 (CCK-8), Kasumi-1. Conditions: Homo sapiens, Kasumi 1, 72 h, read-out: IC50 for inhibiting the proliferation of tumor cells, Kasumi-1.
For the next experiment, the system named is CCRF-CEM cells. Briefly: Tumor cell proliferation IC50 (CCK-8), CCRF-CEM.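 Further: cell viability measured with CCK-8 reagent after compound treatment, IC50 taken from plotted growth inhibition curves.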 Conditions: Homo sapiens, 96 h, read-out: IC50 for inhibiting the proliferation of tumor cells, CCRF-CEM.

Sequence of IKZF3 protein (Q9UKT9 whole entry): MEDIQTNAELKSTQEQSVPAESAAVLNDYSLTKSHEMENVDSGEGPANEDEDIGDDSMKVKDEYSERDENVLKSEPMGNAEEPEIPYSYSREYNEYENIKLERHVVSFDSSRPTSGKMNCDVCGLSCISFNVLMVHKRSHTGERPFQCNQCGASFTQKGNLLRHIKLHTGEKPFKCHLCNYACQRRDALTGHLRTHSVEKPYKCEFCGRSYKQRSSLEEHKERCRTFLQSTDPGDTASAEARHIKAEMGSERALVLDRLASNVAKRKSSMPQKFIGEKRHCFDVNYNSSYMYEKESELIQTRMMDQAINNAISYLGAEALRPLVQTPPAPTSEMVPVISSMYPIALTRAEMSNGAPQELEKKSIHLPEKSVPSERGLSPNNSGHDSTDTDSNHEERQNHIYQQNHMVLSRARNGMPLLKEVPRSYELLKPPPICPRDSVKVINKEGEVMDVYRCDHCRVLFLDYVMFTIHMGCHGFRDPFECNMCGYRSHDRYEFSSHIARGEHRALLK
Sequence of IKZF3 protein (Q96SW2 whole entry): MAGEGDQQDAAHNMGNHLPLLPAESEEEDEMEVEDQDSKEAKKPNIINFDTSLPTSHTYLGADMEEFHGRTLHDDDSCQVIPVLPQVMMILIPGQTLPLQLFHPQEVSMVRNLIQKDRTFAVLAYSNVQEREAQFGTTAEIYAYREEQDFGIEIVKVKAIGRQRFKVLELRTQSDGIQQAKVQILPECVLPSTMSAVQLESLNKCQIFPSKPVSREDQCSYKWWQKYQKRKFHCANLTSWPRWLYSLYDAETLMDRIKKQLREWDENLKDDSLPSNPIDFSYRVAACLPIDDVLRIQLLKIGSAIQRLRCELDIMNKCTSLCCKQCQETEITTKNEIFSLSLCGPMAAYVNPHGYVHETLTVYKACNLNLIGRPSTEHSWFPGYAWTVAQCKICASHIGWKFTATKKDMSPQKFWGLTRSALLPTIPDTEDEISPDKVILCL
Sequence of IKZF3 protein (Q16531 whole entry partner): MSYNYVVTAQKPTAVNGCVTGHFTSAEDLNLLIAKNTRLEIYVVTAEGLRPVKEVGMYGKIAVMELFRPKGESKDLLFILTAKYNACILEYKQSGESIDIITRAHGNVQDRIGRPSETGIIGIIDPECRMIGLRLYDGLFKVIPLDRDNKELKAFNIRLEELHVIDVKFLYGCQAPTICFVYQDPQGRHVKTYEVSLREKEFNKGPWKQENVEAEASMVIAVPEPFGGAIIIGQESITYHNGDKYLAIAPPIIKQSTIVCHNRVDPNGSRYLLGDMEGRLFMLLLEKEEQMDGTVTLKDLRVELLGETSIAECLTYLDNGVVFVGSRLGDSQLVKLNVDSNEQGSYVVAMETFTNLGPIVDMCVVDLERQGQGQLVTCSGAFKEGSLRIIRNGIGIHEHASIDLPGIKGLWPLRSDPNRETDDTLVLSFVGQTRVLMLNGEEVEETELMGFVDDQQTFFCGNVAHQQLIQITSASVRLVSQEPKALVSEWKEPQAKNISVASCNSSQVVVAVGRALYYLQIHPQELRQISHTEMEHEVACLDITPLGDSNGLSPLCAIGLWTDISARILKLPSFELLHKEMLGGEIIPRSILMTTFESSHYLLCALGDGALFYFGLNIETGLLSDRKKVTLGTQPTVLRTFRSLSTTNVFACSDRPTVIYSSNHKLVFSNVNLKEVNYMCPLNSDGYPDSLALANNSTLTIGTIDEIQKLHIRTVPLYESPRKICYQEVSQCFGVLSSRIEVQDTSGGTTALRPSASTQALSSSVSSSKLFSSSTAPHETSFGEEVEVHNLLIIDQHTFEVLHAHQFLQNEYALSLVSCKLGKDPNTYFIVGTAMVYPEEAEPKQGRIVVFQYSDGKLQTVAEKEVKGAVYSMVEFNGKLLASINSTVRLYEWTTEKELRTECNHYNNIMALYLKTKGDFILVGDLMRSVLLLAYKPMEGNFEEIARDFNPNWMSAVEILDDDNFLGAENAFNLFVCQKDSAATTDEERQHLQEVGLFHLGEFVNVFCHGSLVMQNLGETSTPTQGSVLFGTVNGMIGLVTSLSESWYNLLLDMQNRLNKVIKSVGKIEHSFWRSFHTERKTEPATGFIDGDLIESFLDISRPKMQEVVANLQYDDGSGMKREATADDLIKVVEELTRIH
Sequence of human Cereblon WT GST-tagged protein (Q96SW2 whole entry): as the sequence (Q96SW2 whole entry) above
Sequence of IKZF1 protein (Q13422 whole entry): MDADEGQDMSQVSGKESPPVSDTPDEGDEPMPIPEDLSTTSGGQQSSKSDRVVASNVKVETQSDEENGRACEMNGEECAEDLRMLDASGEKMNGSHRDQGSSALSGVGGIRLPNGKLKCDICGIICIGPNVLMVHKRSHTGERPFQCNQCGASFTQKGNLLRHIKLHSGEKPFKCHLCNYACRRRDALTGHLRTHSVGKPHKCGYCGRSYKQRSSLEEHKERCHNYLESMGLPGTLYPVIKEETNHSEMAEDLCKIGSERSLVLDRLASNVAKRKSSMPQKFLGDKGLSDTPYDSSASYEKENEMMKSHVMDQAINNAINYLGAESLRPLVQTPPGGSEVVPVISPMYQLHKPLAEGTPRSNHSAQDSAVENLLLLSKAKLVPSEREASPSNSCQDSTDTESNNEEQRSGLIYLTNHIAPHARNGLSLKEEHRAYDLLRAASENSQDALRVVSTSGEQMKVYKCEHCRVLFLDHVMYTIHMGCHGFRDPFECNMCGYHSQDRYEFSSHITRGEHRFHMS
Sequence of IKZF1 protein (Q96SW2 whole entry): as the sequence (Q96SW2 whole entry) above
Sequence of IKZF1 protein (Q16531 whole entry partner): as the sequence (Q16531 whole entry partner) above
Sequence of GSPT1 protein (P15170 whole entry): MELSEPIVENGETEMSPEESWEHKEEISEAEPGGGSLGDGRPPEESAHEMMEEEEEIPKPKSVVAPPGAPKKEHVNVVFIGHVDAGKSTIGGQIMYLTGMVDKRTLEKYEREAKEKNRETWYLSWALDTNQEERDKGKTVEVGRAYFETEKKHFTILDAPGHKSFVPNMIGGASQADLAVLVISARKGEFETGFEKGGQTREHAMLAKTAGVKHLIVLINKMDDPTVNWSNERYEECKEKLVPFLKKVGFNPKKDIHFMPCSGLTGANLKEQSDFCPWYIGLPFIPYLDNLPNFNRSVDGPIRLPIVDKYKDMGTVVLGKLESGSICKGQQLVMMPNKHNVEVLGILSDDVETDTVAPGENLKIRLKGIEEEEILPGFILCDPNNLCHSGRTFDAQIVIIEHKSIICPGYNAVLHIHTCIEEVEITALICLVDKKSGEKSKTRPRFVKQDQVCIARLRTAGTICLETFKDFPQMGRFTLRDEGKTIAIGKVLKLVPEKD
Sequence of GSPT1 protein (Q96SW2 whole entry): as the sequence (Q96SW2 whole entry) above
Sequence of GSPT1 protein (Q16531 whole entry partner): as the sequence (Q16531 whole entry partner) above
Method for CCRF-CEM cells: (§1) The tumor cells used herein were cultured in a cell culture medium listed in table A at 37° C. in an incubator with 5% CO2.
(§2) After the cells were treated with the compounds of the present disclosure for a period of time, the cell viability detection reagent was added to the culture medium for cell viability assessment according to the instructions provided with the CCK-8 kit. […] The growth inhibition of the compounds of the present disclosure on cells was plotted by Prism Graphpad software, and the IC50 values of the compounds of the present disclosure were calculated therefrom.
Method for Kasumi-1 cells: as §1, §2

Turning to `CC1(C)CCC(CN2CCN(Cc3cc4c(cc3F)C(=O)N(C3CCC(=O)NC3=O)C4)CC2)=C(c2ccc(F)cc2)C1` (stereo not drawn) [GT-05391, 3-(6-fluoro-5-((4-((4′-fluoro-5,5-dimethyl-3,4,5,6-tetrahydro-[1,1′-biphenyl]-2-yl)methyl)piperazin-1-yl)methyl)-1-oxoisoindolin-2-yl)piperidine-2,6-dione], the pIC50 in [1] was 6.24; with Mino cells, 8.00 to 8.30; with MM.1S cells, 8.00 to 8.30; in the experiment with Daudi cells, 7.30 to 8.00; in the experiment on MV-4-11 cells, over 8.30; in the experiment with Kasumi-1 cells it was 7.30 to 8.00. Further, the pIC50 in the experiment on CCRF-CEM cells is over 8.30. On IKZF1 protein, the “residual substrate protein level, IKZF1” value is recorded as “A (A represents a residual substrate protein level of <50%)”. Also, the “residual substrate protein level, IKZF3” value on IKZF3 protein is listed as “A (A represents a residual substrate protein level of <50%)”. On GSPT1 protein, the “residual substrate protein level, GSPT1” value is “A (A represents a residual substrate protein level of <50%)”.

On to `O=C1CCC(N2Cc3cc(CC4CCN(C(=O)c5ccccc5-c5ccc(Cl)cc5)CC4)ccc3C2=O)C(=O)N1` (stereo not drawn) [GT-05467, 3-(5-((1-(4′-chloro-[1,1′-biphenyl]-2-carbonyl)piperidin-4-yl)methyl)-1-oxoisoindolin-2-yl)piperidine-2,6-dione], for which the pIC50 was 6.28 in experiment [1]; 7.30 to 8.00 with Mino cells; 7.30 to 8.00 in the experiment on MM.1S cells; 6.30 to 7.00 in the experiment with Daudi cells; 7.30 to 8.00 in the experiment on MV-4-11 cells; 7.30 to 8.00 in the experiment with Kasumi-1 cells. Besides, the pIC50 with CCRF-CEM cells was 8.00 to 8.30. Further, the “residual substrate protein level, IKZF1” value at IKZF1 protein is “B (B represents a residual substrate protein level of >50%)”. Further, the “residual substrate protein level, IKZF3” value on IKZF3 protein is “B (B represents a residual substrate protein level of >50%)”. The “residual substrate protein level, GSPT1” value at GSPT1 protein is on record as “A (A represents a residual substrate protein level of <50%)”.

Consider `O=C1CCC(N2Cc3cc(C=C4CN(C(=O)c5ccccc5-c5ccc(Cl)cc5)C4)ccc3C2=O)C(=O)N1` (stereo not drawn) [GT-05482, 3-(5-((1-(4′-chloro-[1,1′-biphenyl]-2-carbonyl)azetidin-3-ylidene)methyl)-1-oxoisoindolin-2-yl)piperidine-2,6-dione], for which the pIC50 in [1] is 6.48; in the experiment with Mino cells it was 8.00 to 8.30; with MM.1S cells, 8.00 to 8.30; in the experiment on Daudi cells it was 7.30 to 8.00; in the experiment with MV-4-11 cells, 8.00 to 8.30; with Kasumi-1 cells, 7.30 to 8.00. For the same compound, the pIC50 with CCRF-CEM cells was 8.00 to 8.30. For the same compound, the “residual substrate protein level, IKZF1” value at IKZF1 protein is “B (B represents a residual substrate protein level of >50%)”. Besides, at IKZF3 protein, the “residual substrate protein level, IKZF3” value is given as “B (B represents a residual substrate protein level of >50%)”. Moreover, the “residual substrate protein level, GSPT1” value at GSPT1 protein is “A (A represents a residual substrate protein level of <50%)”.

For `O=C1CCC(N2C(=O)c3ccc(CN4CCN(Cc5ccccc5-c5ccc(Cl)cc5)CC4)cc3C2=O)C(=O)N1` (stereo not drawn) [GT-05497, 5-((4-((4′-chloro-[1,1′-biphenyl]-2-yl)methyl)piperazin-1-yl)methyl)-2-(2,6-dioxopiperidin-3-yl)isoindoline-1,3-dione], at IKZF1 protein, the “residual substrate protein level, IKZF1” value was “B (B represents a residual substrate protein level of >50%)”. The “residual substrate protein level, IKZF3” value on IKZF3 protein is given as “A (A represents a residual substrate protein level of <50%)”. The “residual substrate protein level, GSPT1” value on GSPT1 protein was “A (A represents a residual substrate protein level of <50%)”. Moreover, the pIC50 in the experiment on Mino cells was 6.30 to 7.00; in the experiment on MM.1S cells it was 6.30 to 7.00; with Daudi cells it was 6.00 to 6.30; with MV-4-11 cells, 6.30 to 7.00; in the experiment with Kasumi-1 cells it was 6.30 to 7.00; in the experiment with CCRF-CEM cells, 7.00 to 7.30.
